# Data published in US8853359B2, “Endokinin C/D-derived peptides” (University of Miyazaki, priority 2009, dated 2014).
# Tests used:
# Format in all cases: in vivo, rat
# [1] = test system: substance P-induced scratching behavior; experiment: substance P-induced scratching behavior after intrathecal pre-administration of test peptide
# Description: In Example 1, 10^−3M (10 nmol/10 μl) EKC/D or D-EKC/D (1), (2) or (3) was administered to intrathecally catheterized rats via catheters. After the predetermined time periods denoted on the horizontal axis in FIG. 1, the numbers of scratching events (scratching behavior) induced by intrathecal administration of 10^−3M (10 nmol/10 μl) substance P (hereafter, referred to as “SP”) were determined. Here, the expression “10^−3M (10 nmol/10 μl) EKC/D or D-EKC/D (1), (2), or (3) was administered” refers to a situation in which 10 μl in total of a solution (that is, 10^−3M solution) containing 10 nmol of EKC/D or D-EKC/D (1), (2), or (3) was all administered. The expression, “ . . . administration of 10^−3M substance P (10 nmol/10 μl)” refers to a situation in which 10 μl in total of a solution (that is, 10^−3M solution) containing 10 nmol of the substance was all administered. The same similarly applies below.
# Meanwhile, saline (10 μl) was intrathecally administered to intrathecally catheterized rats via catheters and then, after 30 minutes, 10^−3M SP (10 nmol/10 μl) was intrathecally administered to the rats. The number of the thus induced scratching events was determined to be the number of scratching events in the control group. The control group is denoted with saline-4-SP in FIG. 1.
# The vertical axis of the graph in FIG. 1 indicates changes in the numbers of scratching events (represented by relative values) due to administration of 10^−3M EKC/D or D-EKC/D (1), (2), or (3) when the number of scratching events (of untreated rats in a control group) induced by intrathecal administration of 10^−3M substance P was determined to be 100%. Meanwhile, the horizontal axis indicates the intervals between the administration of EKC/D, D-EKC/D (1), (2), or (3) and 10^−3M substance P. […]
# The test was conducted with procedures similar to those in Example 1, except for 4 hours of interval between the administration of each test peptide and the administration of substance P. The concentration of each test peptide and that of substance P for administration were determined to be 10^−3M (10 nmol/10 μl), similarly to Example 1. The number of scratching events in the control group was determined with procedures similar to those in Example 1, such that substance P was administered at 30 minutes after administration of saline (10 μl) and then the number was determined.
# [2] = test system: SP-induced thermal hyperalgesia; experiment: SP-induced thermal hyperalgesia (withdrawal latency) after intrathecal pre-administration of peptide; conditions: 10^-3M (10 nmol/10 μl) peptide intrathecal, FIG. 7
# From the text: In this test, the effects of intrathecal pre-administration with D-EKC/D (1), (2), and (3) on the induction of thermal hyperalgesia following intrathecal administration of SP were confirmed using as an index thermal hyperalgesia, which is one type of pain-related behavior. The effects can be evaluated based on withdrawal latency period, which is the time required for withdrawal response to take place after application of noxious thermal stimulation to plantar using infrared rays.
# In Example 4, 10^−3M (10 nmol/10 μl) D-EKC/D (1), (2), or (3) was administered to intrathecally catheterized rats via catheters, intrathecal administration of 10^−6M (10 pmol/10 μl) SP was performed at 4 hours and at 8 hours after administration of D-EKC/D, the presence or the absence of hyperalgesia following intrathecal administration of SP was evaluated based on the time (latency period) required for withdrawal response to take place, the latency period following SP administration in rats pretreated with D-EKC/D and the latency period resulting from administration of SP alone were compared, and thus the effects of preadministration of D-EKC/D (1), (2), and (3) were evaluated.
# [3] = test system: carrageenan-induced inflammation; experiment: carrageenan-induced increase in paw size after intrathecal pre-administration of peptide
# Description: In Example 6, 10^−3M (10 nmol/10 μl) D-EKC/D (3), (5), or (7), Spantide I, or saline (10 μl) was administered to intrathecally catheterized rats via catheters. Four hours later, 100 μl of 2% carrageenan (2 mg/100 μl) was subcutaneously administered to rat plantar.
# Paw size was measured with time for 60 minutes after carrageenan administration. The paw size (control) before carrageenan administration was designated as the basal level, and the increases in paw size were then calculated.
# [4] = paw size after subcutaneous administration of peptide alone to plantar; conditions: 10^-3M D-EKC/D (3) subcutaneous to plantar; for paw plantar size after administration of peptide alone: FIG. 10A
# Description: 100 μlof saline or 10^−3M (100 nmol/100 D-EKC/D (3) was subcutaneously administered to rat plantar. Paw size was measured with time for 60 minutes after administration. Paw size (control) before administration was designated as the basal level, and increases in paw size were then calculated.
# [5] = test system: carrageenan-induced inflammation; experiment: carrageenan-induced increase in paw size after subcutaneous pre-administration of peptide to plantar; conditions: 10^-3M (100 nmol/100 μl) subcutaneous to plantar
# Description: 100 μl of saline, 10^−3M (100 nmol/100 μl) D-EKC/D (3), or 10^−3M (100 nmol/100 μl) Spantide II (N^6-[(3-pyridinyl)carbonyl]-D-Lys-L-Pro-3-(3-pyridinyl)-L-Ala-L-Pro-3,4-dichloro-D-Phe-L-Asn-D-Trp-L-Phe-D-Trp-L-Leu-L-Nle-NH2) (SEQ ID NO: 21) was subcutaneously administered to rat plantar. Four (4) hours later, 100 μl (2 mg/100 μl) of 2% carrageenan was subcutaneously administered to rat plantar. Paw size was measured every 10 minutes for 60 minutes after carrageenan administration. The paw size (control) before carrageenan administration was designated as the basal level and increases in paw size were then calculated.
# Procedures similar to those in Experiment B were performed, except for administration of carrageenan at 8 hours after administration of saline, D-EKC/D (3), or Spantide II.
# Procedures similar to those in Experiment B were performed except that the test with Spantide II was not conducted and carrageenan was administered at 14 hours after administration of saline or D-EKC/D (3).
substance,measurement,setting,value
Ala-Tyr-Gln-Leu-Glu-His-Thr-Phe-Gln-DTrp-Leu-Leu-NH2 (AYQLEHTFQXLL; HELM PEPTIDE1{A.Y.Q.L.E.H.T.F.Q.[dW].L.L.[am]}$$$$V2.0; N-terminus assumed; SMILES CC(C)C[C@H](NC(=O)[C@H](CC(C)C)NC(=O)[C@@H](Cc1c[nH]c2ccccc12)NC(=O)[C@H](CCC(N)=O)NC(=O)[C@H](Cc1ccccc1)NC(=O)[C@@H](NC(=O)[C@H](Cc1c[nH]cn1)NC(=O)[C@H](CCC(=O)O)NC(=O)[C@H](CC(C)C)NC(=O)[C@H](CCC(N)=O)NC(=O)[C@H](Cc1ccc(O)cc1)NC(=O)[C@H](C)N)[C@@H](C)O)C(N)=O) [D-EKC/D (3)],"number of scratching events induced by substance P, relative to control group (saline+SP = 100%)","[1]; 10^-3M (10 nmol/10 μl) peptide intrathecal, 10^-3M SP 30 minutes after peptide, FIG. 1",about 20%
same,"number of scratching events induced by substance P, relative to control group","[1]; 10^-3M peptide intrathecal, administration interval of 45 minutes, FIG. 1",almost the same effects were exhibited
same,suppressive effects on substance P-induced scratching behavior,"[1]; Example 1, intervals of 4 hours, 8 hours, and 14 hours between peptide and SP, both 10^-3M",significant suppressive effects
same,scratching behavior induced by substance P,"[1]; Example 2, FIG. 2, 10^-3M peptide, SP 4 hours after peptide, control about 380 scratching",almost never induced
same,suppressive effects on scratching as administration interval is prolonged,"[1]; Example 2, FIG. 2, 10^-3M peptide, interval 8 hours and then 14 hours",gradually attenuated
same,scratching behavior induced by substance P / suppressive effects,"[1]; Example 3, FIG. 3, 10^-3M peptide, SP 4 hours after peptide, control 380 scratching",almost never induced
same,effect on latency period following administration of SP,"[2]; 10^-6M SP 4 hours later, saline about 20 seconds, SP about 13 seconds",significantly attenuated
same,effect on latency period following administration of SP,[2]; 10^-6M SP 8 hours later,significant attenuation
same,rate of increase of paw sizes,"[3]; 10^-3M (10 nmol/10 μl) peptide intrathecal, 2% carrageenan 4 hours later, FIG. 9A",significant decreases
same,effects on paw size and withdrawal time compared with Spantide I,"[3]; 10^-3M intrathecal, carrageenan 4 hours later",sustained to a greater extent than the effects of Spantide I
same,inflammation reaction caused by the peptide,[4],no inflammation reaction took place
same,paw plantar size after administration of peptide alone,[4]; 60 minutes after administration,restored to near the basal (control) level
same,paw plantar size after administration of peptide alone,[4]; early after administration,tentatively increased
same,increases in paw size accompanying carrageenan-induced inflammation,"[5]; carrageenan 4 hours later, FIG. 10B",suppressed increases in paw size accompanying carrageenan-induced inflammation more significantly than administration of Spantide II
same,increases in paw size accompanying carrageenan-induced inflammation,"[5]; carrageenan 8 hours later, FIG. 10C",suppressed increases in paw size
same,increases in paw size accompanying carrageenan-induced inflammation,"[5]; carrageenan 14 hours later, FIG. 10D",suppressed increases in paw size
